This note sets out measurements from patent US20080131432A1, “Method of treating the chemotoxic effects of chemotherapeutic drugs on brain tissue” (University of Kentucky Research Foundation, priority 2005, published 2008).

For one data set, the system named is TNF α. Put plainly: TNF α levels in serum (mouse TNF-α ELISA). The format is in vivo. As for the experimental part: Mice were treated with 20 mg/kg ADR or saline as control. Blood samples were collected at 1, 3, 6, 9, 24 hours and allowed to clot at 2-8° C. overnight. Serum samples were used to measure TNF α levels, according to the mouse enzyme-linked immunosorbent assay following the manufacturers' instructions (mouse TNF-α/TNFSF1A immunoassay, R&D Systems, Minneapolis, MN). The TNF α concentration in the sample was calculated from a recombinant mouse TNF α standard curve. The minimum detection limit is typically less than 5.1 pg/mL.
8-week-old male B6C3 mice (25-30 g) were kept under standard conditions. Mice were injected with a single intraperitoneal (i.p.) treatment with adriamycin (doxorubicin hydrochloride, 20 mg/kg), TNF-α, anti-mouse TNF-antibody (40 ng/kg), dipropylenetriamine NONOate (DPTA NONOate, […]), lipopolysaccharide (LPS 1 mg/kg), NG-nitro-L-arginine-methyl esther (L-NAME, 10 mg/kg) or pre-immune IgG.
Mice were treated with 20 mg/kg ADR, TNF-α, anti-mouse TNF-antibody, dipropylenetriamine NONOate, lipopolysaccharide, NG-nitro-L-arginine-methyl esther or pre-immune IgG, as well as saline as control. Blood samples were collected at 3 hours after ADR treatment and allowed to clot at 2-8° C. overnight. Serum samples were used to measure TNF levels, according to the mouse enzyme-linked immunosorbent assay following the manufacturers' instructions (mouse TNF-α/TNFSF1A immunoassay, R&D Systems, Minneapolis, Minn.). The TNF concentration in the sample was calculated from a recombinant mouse TNF standard curve. The minimum detection limit is typically less than 5.1 pg/mL.
In general terms: ELISA stands for enzyme-linked immunosorbent assay.

Data set [1] deals with mitochondrial respiration complex I. Put plainly: Brain mitochondrial respiration, complex I (pyruvate + malate), respiration control ratio. As to conditions: iNOSKO mice, 3 hours after treatment.
Method: Mice were perfused via cardiac puncture with cold mitochondrial isolation buffer, the brain promptly removed, the cerebellum dissected away, and mitochondria immediately isolated from the freshly brain by a modification of the method described by Mattiazzi et al. (2002). Brain mitochondria were isolated in cold mitochondrial isolation buffer, containing 0.07 M sucrose, 0.22 M mannitol, 20 mM HEPES, 1 mM EGTA, and 1% bovine serum albumin, pH 7.2. Tissues were homogenized with a Dounce homogenizer and centrifuged at 1,500×g at 4° C. for 5 minutes before transferring the supernatant. The pellets were resuspended and centrifuged at 1,500×g at 4° C. for 5 minutes. The supernatants were combined and centrifuged at 13,500×g at 4° C. for 10 minutes. Mitochondrial pellets were washed twice and finally resuspended in 50-100 μL cold isolation buffer. Protein concentration of isolated mitochondria was determined by the Bradford assay (Bradford, 1976). The final protein concentration was 20-40 mg/ml.
Mitochondrial respiration was determined using Clark-type polarographic oxygen sensors (Hansatech Instruments, Kings Lynn, Norfolk, UK) to measure the rate of oxygen consumption. Freshly isolated mitochondria were suspended in respiration buffer at a concentration of 0.5 mg mitochondrial protein per mL of respiration buffer, which consists of 0.25 M sucrose, 50 mM HEPES, 1 mM EGTA, 10 mM KH2PO4, and 2 mM MgCl2, pH 7.4. Oxygen consumption was measured with either pyruvate (10 mM) plus malate (10 mM) or succinate (10 mM) as substrates for respiration from complex I or complex II in the absence of exogenous ADP (state II) and after addition of 300 mM ADP (state III respiration). Rotenone (5 μM) was added to the reaction to inhibit respiration from complex I when succinate was used as the substrate. […] FCCP (1 μM), an uncoupling agent, was added as a control of respiration. Respiration control ratios (RCR) were calculated as the ratios of state III and state II respiration as described previously by Estabrook (1967). The unit for state II rate and state III rate is nmole/min/mg protein.
Mice were perfused via cardiac puncture with cold mitochondrial isolation buffer, the brain promptly removed, the cerebellum dissected away, and mitochondria immediately isolated from the freshly brain by a modification of the method described by Mattiazzi et al. (2002). Brain mitochondria were isolated in cold mitochondrial isolation buffer, containing 0.07 M sucrose, 0.22 M mannitol, 20 mM HEPES, 1 mM EGTA, and 1% bovine serum albumin, pH 7.2. Tissues were homogenized with a Dounce homogenizer and centrifuged at 1,500×g at 4° C. for 3 minutes before transferring the supernatant fluid. The pellets were resuspended and centrifuged at 1,500×g at 4° C. for 3 minutes. The supernatant fluids were combined and centrifuged at 1,500×g at 4° C. for 3 minutes. These supernatant fluids were then centrifuged at 13,500×g at 4° C. for 10 minutes. Mitochondrial pellets were washed twice and finally resuspended in 50-100 μL cold isolation buffer. Protein concentration of isolated mitochondria was determined by the Bradford assay (Bradford, 1976).
Mitochondrial respiration was determined using Clark-type polarographic oxygen sensors (Hansatech Instruments, UK) to measure the rate of oxygen consumption. Freshly-isolated mitochondria were suspended in respiration buffer at a concentration of 0.5 mg mitochondrial protein/mL respiration buffer, which consisted of 0.25 M sucrose, 50 mM HEPES, 1 mM EGTA, 10 mM KH2PO4, 2 mM MgCl2 and 0.2% BSA, pH 7.4. Oxygen consumption was measured with either pyruvate (10 mM) or pyruvate plus malate (10 mM) as substrates for respiration from complex I, in the absence of exogenous ADP (state II), and after addition of 300 mM ADP (state III respiration). […] FCCP (1 μM), an uncoupling agent, was added as a control respiration. Respiration control ratios (RCR) were calculated as the ratios of state III and state II respiration.
A further data set has as its system MnSOD. As to conditions: wild-type mice.
In a further data set the test system is iNOS mRNA. Nature of the data set: iNOS mRNA expression in brain tissues (RT-PCR). It counts as in vivo, mouse. Conditions: wild-type mice, 3 hours after treatment, vs saline controls. The method, then: At 3 hours after treatment, mice were anesthetized and perfused via cardiac puncture with 0.1 M PBS, pH 7.4. The MRNA was isolated using the Micro-FastTrack 2.0 Kit (Invitrogen, Groningen, Netherlands) according to the manufacturer's instructions. The purified MRNA (5 μg) was subjected to reverse-transcription into first strand cDNA in each 20 μL of reaction mixture using the SuperScript III First-Strand Synthesis System for RT-PCR (Invitrogen) according to the manufacturer's instruction. A 25 μL PCR reaction contained 5 μL first strand cDNA, 0.1 U Taq DNA polymerase (Invitrogen), 10 mM 10×PCR buffer, 1.5 mM MgCl2, 2.5 mM dNTP and 10 pmol of each specific primer. PCR samples were subjected to the following conditions: 35 cycles for iNOS (94° C.: 1 minute; 65° C.: 1 minute; 72° C.: 1 minute), 32 cycles for β-actin (94° C.: […]; 55° C.: 30 s; 72° C.: 10 minutes), on a thermocycle (Perkin-Elmer). The primers with the target gene sequences were synthesized by Invitrogen. The primer sequence iNOS was 5′-CTGATGGTCAAGATCCAG-A-GGTCT-3′ (forward) and 5′-[…]-CTCT-3′(reverse), and the primer for β-actin was 5′-TGTTAC-CAACTGGGACGACA-3′ (forward) and 5′-CTGGGTCATCTT-TTCACCGT-3′ (reverse). After amplification, PCR products were subjected to 1% agarose gel electrophoresis, and visualized by ethidium bromide staining. The relative density of bands was analyzed under ultraviolet light (Bio-Rad). Experiments were repeated three times for reproducibility.

“Also recorded” adds a separate entry of the source.

As to `NCCCN(CCCN)/[N+]([O-])=N/O` [DPTA NONOate, dipropylenetriamine NONOate], the “TNF-α level in serum (circulating TNF-α)” value with TNF α (iNOSKO mice, 3 hours after treatment) is “did not lead to changes; also recorded: had no effect”. For the same compound, the “Brain mitochondrial respiration complex I (RCR)” value in data set [1] is given as “significantly lowered; also recorded: causes mitochondrial dysfunction”. As to `COC(=O)[C@@H](N)CCCNC(=N)N[N+](=O)[O-]` [L-NAME, NG-nitro-L-arginine-methyl esther], the “MnSOD activity in brain vs saline- or ADR-treated mice” value with MnSOD (L-NAME 10 mg/kg i.p.) is reported as “led to increased MnSOD activity”. Besides, the “Effect on ADR-induced MnSOD inactivation” value in the data set on MnSOD (L-NAME with ADR) is reported as “prevented MnSOD inactivation”. Take TNF-α: the “TNF α level in serum (circulating TNF α)” value in the data set on TNF α (wild-type mice, 3 hours after single i.p. treatment, vs saline control) is “increased”. For the same compound, the “iNOS mRNA levels in brain tissues” value with iNOS mRNA is listed as “significantly increased”. For lipopolysaccharide [LPS], in the data set with iNOS mRNA, the “iNOS mRNA levels in brain tissues” value was “significantly increased”.
